Experiment [1] has as its system IL-1β-induced TNF-α production from human PBMC. Description: IL-1β-induced TNF-α production from human PBMC. Format: cell-based. The following applies: 18 h, read-out: IL-β-induced TNF-α IC50. On the procedure:
During the course of inflammatory diseases, TNF-α production is often stimulated by the cytokine IL-1β, rather than by bacterially derived LPS. Compounds were tested for the ability to inhibit IL-1β-induced TNF-α production from human PBMC as described above for LPS-induced TNF-α production, except that the PBMC were isolated from source leukocyte units (Sera-Tec Biologicals, North Brunswick, N.J., USA) by centrifugation on Ficoll-Paque Plus (Amersham Pharmacia, Piscataway, N.J., USA), plated in 96-well tissue culture plates at 3×10^5 cells/well in RPMI-1640 medium (BioWhittaker, Walkersville, Md., USA) containing 10% heat-inactivated fetal bovine serum (Hyclone), 2 mM L-glutamine, 100 U/ml penicillin, and […] (complete medium), pretreated with compounds at 10, 2, 0.4, 0.08, 0.016, 0.0032, 0.00064, and 0 μM in duplicate at a final DMSO concentration of 0.1% at 37° C. in a humidified incubator at 5% CO2 for one hour, then stimulated with 50 ng/ml recombinant human IL-1β (Endogen) for 18 hours.

In experiment [2] the target is PDE5 from human platelets (Homo sapiens, UniProt O76074). Description: PDE5 enzyme assay. It is filed as biochemical.
Experiment [3] relates to SEB-induced IFN-γ production. Description: cells. Format: cell-based. Conditions: Homo sapiens, PBMC, 18 h, read-out: IFN-γ IC50.
Experiment [4] deals with CD18 expression on neutrophils. Description: fMLF-induced CD18 expression on neutrophils. It is filed as cell-based. Conditions: Neutrophil; human neutrophils, 30 nM fMLF. On the procedure:
CD18/CD11b (Mac-1) expression on neutrophils was measured as previously described (Derian et al., 1995, J. Immunol., 154:308-3 17) with the following modifications. Neutrophils were isolated as described above, then resuspended in complete medium at 1×10^6 cells/ml, pretreated with compounds at 10, 1, 0.1, 0.01, and 0 μM in duplicate at a final DMSO concentration of 0.1% for 10 minutes at 37° C. 5% CO2. Cells were then stimulated with 30 nM fMLF for 30 minutes and then chilled to 4° C. Cells were treated with rabbit IgG (Jackson ImmunoResearch Labs, West Grove, Pa., USA) (10 μg/1×10^6 cells) to block Fc receptors, stained with CD18-FITC and CD11b-PE (Becton Dickinson), and analyzed by flow cytometry on a FACSCalibur. CD18/CD11b expression (mean fluorescence) in the absence of stimulation was subtracted from all samples to obtain inhibition curves and calculate IC50 values.

Molecules are shown by their SMILES. Some results are limits rather than exact numbers.

The values below come from US8629173B2, “Solid forms comprising (+)-2-[1-(3-ethoxy-4-methoxyphenyl)-2-methylsulfonylethyl]-4-acetylaminoisoindoline-1,3-dione, compositions thereof, and uses thereof” (Celgene Corporation, priority 2002, dated 2014).

With `CCOc1cc(C(CS(C)(=O)=O)N2C(=O)c3cccc(NC(C)=O)c3C2=O)ccc1OC` (single isomer, unassigned; (+)) [Compound A, (+)-2-[1-(3-ethoxy-4-methoxyphenyl)-2-methylsulfonylethyl]-4-acetylaminoisoindoline-1,3-dione], the IC50 (as a rule, the midpoint of a concentration-inhibition curve) is 83 nM in experiment [1], 46 nM in experiment [3] and 390 nM in experiment [4]. The “PDE Specificity Ratio PDE4/PDE5” value in experiment [2] (from Table 1 data) was over 30000 fold. Also, the inhibition at 10 µM in experiment [2] (read-out: PDE5 (% inhib at 10 μM)) worked out at 3%.
